# Measured values as given in publication PMC8944596, “Determination of the Relationships between the Chemical Structure and Antimicrobial Activity of a GAPDH-Related Fish Antimicrobial Peptide and Analogs Thereof” (Antibiotics, 2022).
# Ends that are not written are not given here.
# How the values were obtained:
# P. aeruginosa ATCC 27853 = test system: P. aeruginosa ATCC 27853; parameters: method as in PMID 1605597; details: cited from earlier work
# E. coli ATCC 25922 [1] = test system: E. coli ATCC 25922; parameters: method as in PMID 1605597; details: cited from earlier work
# E. coli ATCC 25922 [2] = test: Broth microdilution MIC/MBC; assay type: cell-based; details: Escherichia coli, ATCC25922, MHB, 5 × 10^5 CFU/mL, 16 h at 37 °C, no visible growth, three independent repetitions, two technical replicates
# Description: Escherichia coli ATCC 25922, Escherichia coli ATCC 11229, Pseudomonas aeruginosa ATCC 27853, Aeromonas salmonicida subsp. salmonicida 69 R3, Aeromonas salmonicida subsp. salmonicida 69 R5 [53], Micrococcus luteus LMA-272, and Listeria ivanovii ATCC 19119 were used for antibacterial activity testing. Details on these strains used in this study are included in Table 6. All these strains were cultivated in tryptic soy broth (TSB) (BD, Sparks, NV, USA), except for L. ivanovii, which was grown in brain heart infusion (BHI) broth (BD, Sparks, USA). All bacterial strains were grown at 37 °C, except for the two A. salmonicida strains, which were incubated at 20 °C. Strains were sub-cultured at least twice, before being used for antimicrobial and membrane permeabilization assays.
# MICs for bacterial strains were determined using a broth microdilution protocol. Two-fold dilutions of peptide solutions ([…]) were made in Mueller Hinton Broth (MHB) (Oxoid, Basingstoke, UK) in 96-well polypropylene clear round bottom microplates (Corning Inc., Corning, NY, USA). […] Final volumes in the wells were of 200 μL. […] After reading of the MICs, 20 μL of the wells that were showing no visible bacterial growth were inoculated on tryptic soy agar (TSA) (or BHI agar for Listeria ivanovii) plates, which were then incubated at the appropriate temperature for 24 h. […]
# Z. rouxii LL12_088 = test: Antifungal microdilution MIC/MFC; assay type: cell-based, Zygosaccharomyces rouxii; details: 99.9% inhibition of yeast growth by CFU counts on PDA
# Description: Mucor racemosus LMA-722, Paecilomyces sp. 5332-9a, and Aspergillus niger 3071-13 were used as filamentous fungal strains. Saccharomyces boulardii 27169, Rhodotorula mucilaginosa 27173, and Zygosaccharomyces rouxii LL12_088 were used as yeast strains. Fungal strains were sub-cultured on potato dextrose agar (PDA) (BD, Sparks, USA) plates, at 25 °C, at least two times, before being used for antimicrobial and membrane permeabilization testing.
# MICs were also tested using microdilutions in 96-well plates for fungal strains. The protocol used was roughly the same as that described for bacterial strains. RPMI 1640 (Sigma-Aldrich, St. Louis, MO, USA), buffered with MOPS (Fisher Scientific, Fair Lawn, NJ, USA) (0.164 M, pH = 7), was used instead of MHB, according to CLSI guidelines. Potato dextrose broth was used for microplates inoculated with Z. rouxii yeast. For filamentous fungi, conidia were harvested from 7-day cultures and diluted in buffered RPMI 1640 to obtain a suspension containing 5 × 10^4 CFU/mL, as assessed with a COUNTESS II FL automatic cell counter (Thermo Fisher Scientific, Waltham, MA, USA). […] Plates were then incubated for 24 (yeasts) or 48 (filamentous fungi) h at 25 °C. […] Natamycin (Sigma-Aldrich, St. Louis, MO, USA) was used as positive control for all fungal strains. […]
compound,measurement,setting,value
magainin-2,"MIC, P. aeruginosa ATCC 27853",P. aeruginosa ATCC 27853,50 µg/mL
same,"MIC, E. coli ATCC 25922",E. coli ATCC 25922 [1],50 µg/mL
O=C(N[C@H](CO)[C@H](O)c1ccc([N+](=O)[O-])cc1)C(Cl)Cl [Chloramphenicol],MIC,E. coli ATCC 25922 [2],4 µg/mL
HGKKVEIVAIND [Analog 4],"MFC, Z. rouxii LL12_088",Z. rouxii LL12_088,n.f.a. (No fungicidal activity)
